Laboratory results taken from ChEMBL document CHEMBL1153070, “Urea and carbamate derivatives of primaquine: synthesis, cytostatic and antioxidant activities” (Bioorg Med Chem, 2009).
Activity calls are given as the source filed them. The calls are words filed in the database; no cut-off is given here.

Columns and labels:
HCT-116 = assay: Cytostatic activity against human HCT116 cells; format: functional, cell-based
NCI-H460 = assay: Cytostatic activity against human H460 cells; format: functional, cell-based
MOLT-4 = assay: Cytostatic activity against human MOLT4 cells; format: functional, cell-based
[1] = test system: Radical scavenging activity; assay: Antioxidant activity assessed as DPPH radical scavenging activity at 0.05 mM after 20 mins; format: functional
[2] = test system: Radical scavenging activity; assay: Antioxidant activity assessed as DPPH radical scavenging activity at 0.1 mM after 60 mins; format: functional
[3] = test system: Radical scavenging activity; assay: Antioxidant activity assessed as DPPH radical scavenging activity at 0.05 mM after 60 mins; format: functional
[4] = test system: Radical scavenging activity; assay: Antioxidant activity assessed as DPPH radical scavenging activity at 0.1 mM after 20 mins; format: functional
[5] = test system: Radical scavenging activity; assay: Antioxidant activity assessed as DPPH radical scavenging activity; format: functional
[6] = Antioxidant activity assessed as inhibition of AAPH-induced lipid peroxidation at 0.1 mM; format: functional
Glycine max = assay: Inhibition of soybean lipoxygenase
MCF7 [7] = assay: Cytostatic activity against human MCF7 cells; format: functional, cell-based
SW-620 = assay: Cytostatic activity against human SW620 cells; format: functional, cell-based
MCF7 [8] = assay: Antiproliferative activity against human MCF7 cells at 100 uM after 24 hrs; format: functional; details: MCF7, 24 h

SMILES: COc1cc(NC(C)CCCNC(=O)NC(CO)(CO)CO)c2ncccc2c1 (stereo not given)
- IC50 (HCT-116): > 100 µM
- IC50 (NCI-H460): > 100 µM
- IC50 (MOLT-4): > 100 µM
- Activity [1]: 24.4%
- Activity [2]: 40.5%
- Activity [3]: 22.3%
- Activity [4]: 28.6%
- Activity [5]: Dose-dependent effect
- Inhibition [6]: 86%
- inhibition (Glycine max): inactive
- IC50 (MCF7 [7]): 24 µM
- IC50 (SW-620): > 100 µM

SMILES: CCOC(=O)NCCCC(C)Nc1cc(OC)cc2cccnc12 (stereo not given)
- IC50 (HCT-116): 28 µM
- IC50 (NCI-H460): 38 µM
- IC50 (MOLT-4): 34 µM
- Activity [1]: 10.8%
- Activity [2]: 31%
- Activity [3]: 8.5%
- Activity [4]: inactive
- Activity [5]: Dose-dependent effect
- Inhibition [6]: 87%
- inhibition (Glycine max): inactive
- IC50 (MCF7 [7]): 26 µM
- IC50 (SW-620): 45 µM

SMILES: O=C(O)/C=C/c1ccc(O)c(O)c1
- INH (Glycine max): 600 µM

SMILES: COc1cc(N2C(=O)NCCCC2C)c2ncccc2c1 (stereo not given)
- IC50 (HCT-116): > 100 µM
- IC50 (NCI-H460): > 100 µM
- IC50 (MOLT-4): ≥ 100 µM
- Activity [1]: 30.5%
- Activity [2]: 57.1%
- Activity [3]: 40%
- Activity [4]: 48.8%
- Activity [5]: Dose-dependent effect
- Inhibition [6]: 88%
- INH (Glycine max): 72 µM
- IC50 (MCF7 [7]): > 100 µM
- IC50 (SW-620): > 100 µM

SMILES: COc1cc(NC(C)CCCNC(=O)NCCO)c2ncccc2c1 (stereo not given)
- IC50 (HCT-116): > 100 µM
- IC50 (NCI-H460): > 100 µM
- IC50 (MOLT-4): > 100 µM
- Activity [1]: 3.7%
- Activity [2]: 51.2%
- Activity [3]: 10.6%
- Activity [4]: 60.7%
- Activity [5]: Dose-dependent effect
- Inhibition [6]: 81%
- INH (Glycine max): 315 µM
- IC50 (MCF7 [7]): 25 µM
- IC50 (SW-620): > 100 µM

SMILES: COc1cc(NC(C)CCCNC(=O)NC2CCCC2)c2ncccc2c1 (stereo not given)
- Activity [1]: 15.8%
- Activity [2]: 19%
- Activity [3]: 21.3%
- Activity [4]: 26.2%
- Activity [5]: Dose-dependent effect
- Inhibition [6]: 99%
- INH (Glycine max): 220 µM

SMILES: COc1cc(NC(C)CCCNC(=O)NOCc2ccccc2)c2ncccc2c1 (stereo not given)
- IC50 (HCT-116): 14 µM
- IC50 (NCI-H460): 21 µM
- IC50 (MOLT-4): 12 µM
- Activity [1]: inactive
- Activity [2]: 38.1%
- Activity [3]: inactive
- Activity [4]: 11.4%
- Activity [5]: Dose-dependent effect
- Inhibition [6]: 82%
- INH (Glycine max): 230 µM
- IC50 (MCF7 [7]): 9 µM
- IC50 (SW-620): 20 µM

SMILES: COc1cc(NC(C)CCCNC(=O)N(C2CCCCC2)C2CCCCC2)c2ncccc2c1 (stereo not given)
- Activity [1]: 3.9%
- Activity [2]: 42.9%
- Activity [3]: 28.8%
- Activity [4]: 42.9%
- Activity [5]: Dose-dependent effect
- Inhibition [6]: 96%
- INH (Glycine max): 320 µM

SMILES: NC(=O)NO [HYDROXYUREA]
- IC50 (HCT-116): 223 µM
- IC50 (NCI-H460): > 100 µM
- IC50 (MOLT-4): > 100 µM
- IC50 (MCF7 [7]): > 100 µM
- IC50 (SW-620): > 100 µM

SMILES: COc1cc(NC(C)CCCNC(=O)n2nnc3ccccc32)c2ncccc2c1 (stereo not given) [PRIMAQUINE BENZOTRIAZOLIDE]
- Activity [1]: 18.4%
- Activity [2]: 73.8%
- Activity [3]: 20%
- Activity [4]: 16.7%
- Activity [5]: Dose-dependent effect
- IC50 [6]: Not Active
- INH (Glycine max): 260 µM

SMILES: CC(Cc1ccc(O)c(O)c1)C(C)Cc1ccc(O)c(O)c1 (stereo not given)
- Activity [2]: 83%
- Activity [4]: 81%

SMILES: Cc1c(C)c2c(c(C)c1O)CCC(C)(C(=O)O)O2 (stereo not given) [TROLOX]
- Inhibition [6]: 63%

SMILES: COc1cc(NC(C)CCCNC(=O)NCCCO)c2ncccc2c1 (stereo not given)
- IC50 (HCT-116): > 100 µM
- IC50 (NCI-H460): > 100 µM
- IC50 (MOLT-4): > 100 µM
- Activity [1]: 12.2%
- Activity [2]: 33.3%
- Activity [3]: 27.7%
- Activity [4]: 28.6%
- Activity [5]: Dose-dependent effect
- Inhibition [6]: 56%
- INH (Glycine max): 230 µM
- IC50 (MCF7 [7]): 31 µM
- IC50 (SW-620): > 100 µM

SMILES: COc1cc(NC(C)CCCN)c2ncccc2c1 (stereo not given) [PRIMAQUINE]
- IC50 (HCT-116): 20 µM
- IC50 (NCI-H460): 30 µM
- Activity [1]: 17.2%
- Activity [2]: 21.9%
- Activity [3]: 19%
- Activity [4]: 18.1%
- Inhibition [6]: 45%
- INH (Glycine max): 74 µM
- inhibition at 100 µM (MCF7 [8]): 20%
- IC50 (MCF7 [7]): 28 µM
- IC50 (SW-620): ≥ 100 µM

SMILES: COc1cc(NC(C)CCCNC(=O)NC2CCCCC2)c2ncccc2c1 (stereo not given)
- Activity [1]: 28.9%
- Activity [2]: 25%
- Activity [3]: 16.3%
- Activity [4]: 27.4%
- Activity [5]: Dose-dependent effect
- Inhibition [6]: 99%
- inhibition (Glycine max): inactive

SMILES: COc1cc(NC(C)CCCNC(=O)NCCCCCO)c2ncccc2c1 (stereo not given)
- IC50 (HCT-116): 29 µM
- IC50 (NCI-H460): 2 µM
- IC50 (MOLT-4): 61 µM
- Activity [1]: inactive
- Activity [2]: 46.4%
- Activity [3]: inactive
- Activity [4]: 34.5%
- Activity [5]: Dose-dependent effect
- Inhibition [6]: 63%
- INH (Glycine max): 310 µM
- IC50 (MCF7 [7]): 44 µM
- IC50 (SW-620): 0.2 µM

SMILES: COC(=O)NCCCC(C)Nc1cc(OC)cc2cccnc12 (stereo not given)
- IC50 (HCT-116): > 100 µM
- IC50 (NCI-H460): > 100 µM
- IC50 (MOLT-4): > 100 µM
- Activity [1]: 24.4%
- Activity [2]: 48.8%
- Activity [3]: 13.8%
- Activity [4]: 75%
- Activity [5]: Dose-dependent effect
- Inhibition [6]: 83%
- inhibition (Glycine max): inactive
- IC50 (MCF7 [7]): > 100 µM
- IC50 (SW-620): > 100 µM

SMILES: COc1cc(NC(C)CCCNC(=O)N(CCO)CCO)c2ncccc2c1 (stereo not given)
- IC50 (HCT-116): > 100 µM
- IC50 (NCI-H460): > 100 µM
- IC50 (MOLT-4): > 100 µM
- Activity [1]: 20.7%
- Activity [2]: 11.9%
- Activity [3]: 7.4%
- Activity [4]: inactive
- Activity [5]: Dose-dependent effect
- Inhibition [6]: 85%
- INH (Glycine max): 86 µM
- IC50 (MCF7 [7]): 36 µM
- IC50 (SW-620): > 100 µM

SMILES: COc1cc(NC(C)CCCNC(=O)NCCNC(=O)NCCCC(C)Nc2cc(OC)cc3cccnc23)c2ncccc2c1 (stereo not given)
- IC50 (HCT-116): 15 µM
- IC50 (NCI-H460): 18 µM
- IC50 (MOLT-4): 10 µM
- Activity [1]: 34.2%
- Activity [2]: 40.5%
- Activity [3]: 27.6%
- Activity [4]: 35.7%
- Activity [5]: Dose-dependent effect
- Inhibition [6]: 99%
- INH (Glycine max): 62 µM
- IC50 (MCF7 [7]): 31 µM
- IC50 (SW-620): 17 µM

SMILES: COc1cc(NC(C)CCCNC(=O)NO)c2ncccc2c1 (stereo not given)
- IC50 (HCT-116): 57 µM
- IC50 (NCI-H460): > 100 µM
- IC50 (MOLT-4): > 100 µM
- Activity [1]: 2.2%
- Activity [2]: 84.5%
- Activity [3]: 60.6%
- Activity [4]: 88.1%
- Activity [5]: Dose-dependent effect
- Inhibition [6]: 69%
- INH (Glycine max): 83 µM
- IC50 (MCF7 [7]): 44 µM
- IC50 (SW-620): 35 µM
